Test results: ChEMBL document CHEMBL1157129, “Synthesis and antiprotozoal activity of 2,5-bis[amidinoaryl]thiazoles” (Bioorg Med Chem, 2010)
Activity calls are given as the source filed them. No cut-off for these calls is given here.

Legend:
[1] = test system: Trypanosoma brucei rhodesiense; assay: Antitrypanosomal activity against Trypanosoma brucei rhodesiense STIB900 in infected mouse model assessed as host survival time at 25 mg/kg, po for 4 days; assay type: functional
[2] = test system: Trypanosoma brucei rhodesiense; assay: Antitrypanosomal activity against Trypanosoma brucei rhodesiense STIB900 in infected mouse model assessed as parasitemia cure in host at 25 mg/kg, po for 4 days; assay type: functional, organism-based; design: dose 25 mg/kg
[3] = test system: Trypanosoma brucei rhodesiense; assay: Antitrypanosomal activity against Trypanosoma brucei rhodesiense STIB900 in infected mouse model assessed as host survival time at 5 mg/kg, ip for 4 days; assay type: functional; details: route intraperitoneal
Plasmodium falciparum = assay: Antiplasmodial activity against Plasmodium falciparum K1; assay type: functional, organism-based
[4] = test system: Trypanosoma brucei rhodesiense; assay: Antitrypanosomal activity against Trypanosoma brucei rhodesiense STIB900; assay type: functional, organism-based
[5] = test system: Trypanosoma brucei rhodesiense; assay: Antitrypanosomal activity against Trypanosoma brucei rhodesiense STIB900 in infected mouse model assessed as parasitemia cure in host at 5 mg/kg, ip for 4 days; assay type: functional, organism-based; design: dose 5 mg/kg
L6 = assay: Cytotoxicity against rat L6 cells; assay type: cell-based

Structure (SMILES) | Survival [1] | Activity [2] | Survival [3] | IC50 (Plasmodium falciparum) | IC50 [4] | Activity [5] | IC50 (L6)
CO/N=C(\N)c1ccc(-c2cnc(-c3ccc(/C(N)=N\OC)cn3)s2)cc1.Cl.Cl | 35 days | inactive |  |  |  |  | 
N=C(N)c1ccc(OCCCCCOc2ccc(C(=N)N)cc2)cc1 [PENTAMIDINE] |  |  | 45 days |  |  |  | 
CO/N=C(\N)c1ccc(-c2cnc(-c3ccc(/C(N)=N\OC)nc3)s2)cn1.Cl.Cl | 9 days |  |  |  |  |  | 
Cl.Cl.N=C(N)c1ccc(-c2cnc(-c3ccc(C(=N)N)cn3)s2)nc1 |  |  | 21.5 days | 24.6 nM | 176 nM | inactive | > 195000 nM
CO/N=C(\N)c1ccc(-c2cnc(-c3ccc(/C(N)=N\OC)cn3)s2)nc1.Cl.Cl | 9 days | inactive |  |  |  |  | 
Cl.Cl.N=C(N)c1ccc(-c2ncc(-c3ccc(C(=N)N)nc3)s2)cc1 |  |  | > 36 days | 2.4 nM | 6 nM | inactive | 40200 nM
Cl.Cl.N=C(N)c1ccc(-c2cnc(-c3ccc(C(=N)N)nc3)s2)cn1 |  |  | 50.5 days | 1.1 nM | 6 nM | inactive | 1400 nM
Cl.Cl.N=C(N)c1ccc(-c2cnc(-c3ccc(C(=N)N)cn3)s2)cc1 |  |  | 30.25 days | 12.5 nM | 16 nM | inactive | 102000 nM
CO/N=C(\N)c1ccc(-c2ccc(-c3ccc(/C(N)=N/OC)cn3)o2)cc1 | >60 days |  | >60 days |  |  | Active | 
Cl.Cl.N/C(=N/O)c1ccc(-c2cnc(-c3ccc(/C(N)=N\O)cc3)s2)cc1 | 35 days | inactive |  |  |  |  | 
Cl.Cl.N/C(=N\O)c1ccc(-c2cnc(-c3ccc(/C(N)=N/O)nc3)s2)cc1 | 37.5 days | inactive |  |  |  |  | 
Cl.Cl.N/C(=N\O)c1ccc(-c2cnc(-c3ccc(/C(N)=N\O)nc3)s2)cn1 | 24 days |  |  |  |  |  | 
Cl.Cl.N/C(=N\O)c1ccc(-c2cnc(-c3ccc(/C(N)=N\O)cn3)s2)nc1 | 9 days | inactive |  |  |  |  | 
CO/N=C(/N)c1ccc(-c2cnc(-c3ccc(/C(N)=N\OC)cc3)s2)cc1.Cl.Cl | 41 days | inactive |  |  |  |  | 
CONC(=N)c1ccc(-c2ccc(-c3ccc(C(=N)NOC)cc3)o2)cc1 [PAFURAMIDINE] | >60 days | Active | 30 days |  |  | inactive | 
Cl.Cl.N=C(N)c1ccc(-c2cnc(-c3ccc(C(=N)N)nc3)s2)cc1 |  |  | 44.5 days | 2.5 nM | 4 nM | inactive | 1800 nM
N=C(N)c1ccc(-c2ccc(-c3ccc(C(=N)N)cn3)o2)cc1 |  |  | >54.5 days |  |  |  | 
N=C(N)c1ccc(-c2ccc(-c3ccc(C(=N)N)cc3)s2)cc1 |  |  | >48.75 days | 13.8 nM | 3 nM |  | 
CO/N=C(\N)c1ccc(-c2cnc(-c3ccc(/C(N)=N/OC)nc3)s2)cc1.Cl | 42.8 days | inactive |  |  |  |  | 
Cl.Cl.N/C(=N\O)c1ccc(-c2cnc(-c3ccc(/C(N)=N\O)cn3)s2)cc1 | 24 days | inactive |  |  |  |  | 
Cl.Cl.N/C(=N\O)c1ccc(-c2ncc(-c3ccc(/C(N)=N\O)nc3)s2)cc1 | 36.8 days | inactive |  |  |  |  | 
Cl.Cl.N=C(N)c1ccc(-c2cnc(-c3ccc(C(=N)N)cc3)s2)cc1 |  |  | >44.5 days | 2 nM | 4 nM |  | 
Cl.Cl.N=C(N)c1ccc(-c2ncc(-c3ccc(C(=N)N)nc3)s2)nc1 |  |  | 29.25 days | 13 nM | 38 nM | inactive | 37400 nM
N=C(N)c1ccc(-c2ccc(-c3ccc(C(=N)N)cc3)o2)cc1 [FURAMIDINE] |  |  | >46 days |  |  |  | 6500 nM
